Data set [1] is described as follows: Measurement of logP values by HPLC on reversed phase columns (EEC directive 79/831 Annex V.A8). The class given is physicochemical. Particulars: HPLC; for Log P: pH 2.7, 0.1% formic acid in water / acetonitrile, single value.
For another data set, the system named is Phytophthora infestans. The class given is in vivo. The note with it: 500 ppm of active ingredient; tomato, preventive; evaluated 7 days after inoculation; 100% = no disease.
Another data set concerns Plasmopara viticola. The data set can be described thus: Plasmopara test (grapevines) / preventive. Particulars: 100 ppm of active ingredient, evaluated 6 days after inoculation, 100% = no disease. The class given is in vivo. Here is the method:
Plasmopara Test (Grapevines)/Preventive
Solvent: 24.5 parts by weight of acetone
24.5 parts by weight of dimethylacetamide
Emulsifier: 1 part by weight of alkylaryl polyglycol ether
To produce a suitable preparation of active compound, 1 part by weight of active compound is mixed with the stated amounts of solvent and emulsifier, and the concentrate is diluted with water to the desired concentration.
To test for preventive activity, young plants are sprayed with the preparation of active compound at the stated rate of application. After the spray coating has dried on, the plants are inoculated with an aqueous spore suspension of Plasmopara viticola and then remain for 1 day in an incubation cabinet at approximately 20° C. and a relative atmospheric humidity of 100%. The plant is subsequently placed for 4 days in a greenhouse at approximately 21° C. and a relative atmospheric humidity of approximately 90%. The plants are then misted and placed for 1 day in an incubation cabinet.
The test is evaluated 6 days after the inoculation. 0% means an efficacy which corresponds to that of the untreated control, while an efficacy of 100% means that no disease is observed.

Values joined by “and” are separate entries in the source; they are usually repeats but may differ in a detail not shown here. Equal values may be shown once.

For the compound `Cc1snnc1C(=NOCc1csc(NC(=O)COC(C)C)n1)c1ccccc1` [Example 65], the “Log P” value in data set [1] was 3.59. Also, the efficacy is reported as 95% with Phytophthora infestans and 84% in the data set with Plasmopara viticola.

In the case of `Cc1snnc1C(=NOCc1csc(NC(=O)COCc2ccccc2)n1)c1ccccc1` [Example 27], in data set [1], the “Log P” value is 3.92. Besides, the efficacy in the data set on Phytophthora infestans was 100%; with Plasmopara viticola, 89%.

As to `Cc1snnc1C(=NOCc1csc(NC(=O)COCC2CCC2)n1)c1ccccc1` [Example 53], in data set [1], the “Log P” value worked out at 4.11. Further, the efficacy in the data set on Phytophthora infestans was determined as 97%; in the data set on Plasmopara viticola, 95%.

With `Cc1snnc1C(=NOCc1csc(NC(=O)COc2ccccc2)n1)c1ccccc1` [Example 8], the “Log P” value in data set [1] was 3.8. The efficacy in the data set on Phytophthora infestans came out at 100%; with Plasmopara viticola, 72%.

Consider `COc1ccccc1OCC(=O)Nc1nc(CON=C(c2ccccc2)c2nnsc2C)cs1` (mixture of isomers) [Example 57], for which the “Log P [I1] main isomer” value in data set [1] (pH 2.7, 0.1% formic acid, main isomer) turned out to be 3.89. The “Log P [I2] minor isomer” value in data set [1] (pH 2.7, 0.1% formic acid, minor isomer) was 3.78. Further, the efficacy amounted to 100% with Phytophthora infestans and 72% with Plasmopara viticola.

For the compound `Cc1snnc1C(=NOCc1csc(NC(=O)COc2ccccc2)n1)c1ccccc1` (mixture of isomers) [Example 7], the “Log P (two values printed, isomers not assigned)” value in data set [1] (pH 2.7, 0.1% formic acid, two values without isomer tag) is 3.71 and 3.83. Moreover, the results for the efficacy in the data set on Phytophthora infestans and with Plasmopara viticola were 100% and 88%, respectively.

In the case of `Cc1snnc1C(=NOCc1csc(NC(=O)COCCC(C)C)n1)c1ccccc1` [Example 3], the “Log P” value in data set [1] came to 4.36. Further, the efficacy in the data set with Phytophthora infestans was determined as 95%; in the data set with Plasmopara viticola, 84%.

Source of the values: US20130116287A1 (priority 2010, published 2013).
